The values below are quoted from earlier work in paper PMC10205807, “Cross-species comparison in nonclinical pharmacokinetics of lenvatinib by a simple HPLC with ultraviolet detection” (Scientific Reports, 2023).

On the set-up of series [1]: method as in PMID 28115222. As to conditions: rats; cited from earlier work.
Details of series [2]: method as in PMID 28115222. As to conditions: mice; cited from earlier work.
Details of series [3]: method as in PMID 28115222. As to conditions: dogs; cited from earlier work.
Details of series [4]: method as in PMID 30514402. As to conditions: monkeys; cited from earlier work.
On the set-up of series [5]: method as in PMID 30514402. Particulars: mice; cited from earlier work.
Details of series [6]: method as in PMID 30514402. As to conditions: dogs; cited from earlier work.
Details of series [7]: method as in PMID 29620050. Particulars: male rats, intravenous; cited from earlier work.
On the set-up of series [8]: method as in PMID 29620050. As to conditions: dogs, intravenous; cited from earlier work.

Where two headings read alike, the source gives them in different places.

Consider `CCOc1cc2ncc(C#N)c(Nc3ccc(OCc4ccccn4)c(Cl)c3)c2cc1NC(=O)/C=C/[C@H]1CCCN1C` [pyrotinib], for which the CLtot was 3.5 mL/min/kg in series [1], 37.2 mL/min/kg in series [2] and 28 mL/min/kg in series [3]. The F in series [1] is on record as 43.5%; in series [2], 20.6%; in series [3], 20.0%. In addition, the distribution volume (Vdss) in series [1] was 1.35 L/kg; in series [2] it was 5.027 L/kg; in series [3], 8.157 L/kg.

As for `Cc1cn(-c2cc(NC(=O)c3ccc(C)c(Nc4nccc(-c5cccnc5)n4)c3)cc(C(F)(F)F)c2)cn1` [nilotinib], in series [4], the CLtot was 10.6 mL/min/kg, the Oral bioavailability is listed as 16% and the Vdss was 5.737 L/kg. Moreover, in series [5], the CLtot was 2.18 mL/min/kg, the Oral bioavailability was 50% and the Vdss is 0.29 L/kg. Further, in series [6], the CLtot is 3.17 mL/min/kg, the Oral bioavailability is 24% and the Vdss is 1.157 L/kg.

`COc1cc2c(Oc3ccc4[nH]c(C)cc4c3F)ccnc2cc1OCC1(N)CC1` [anlotinib]: the figures for the CLtot in series [7] and in series [8] were 106 mL/min/kg and 6.33 mL/min/kg, respectively. Moreover, the distribution volume (Vdss) in series [7] was 25.4 L/kg; in series [8], 6.8 L/kg.
